Measurements: publication PMC4890880 (ACS infectious diseases, 2016)
Read-outs that look alike come from different tables or passages of the source.

Tests used:
[1] = system: HepG2-A16-CD81EGFP cells; assay: cells; conditions: Homo sapiens; for IC50: HepG2, read-out: Tox IC50; for inhibition at 50 µM: HepG2, read-out: Tox max inhibition (%) @ 50 uM
[2] = system: Plasmodium berghei (Pb-Luc) exoerythrocytic-stage parasites; assay: microbe, parasite or virus in culture
[3] = HepG2, read-out: HepG2 Tox% @ 50 uM rep1
[4] = HepG2, read-out: HepG2 Tox% @ 50 uM rep2
[5] = read-out: Inhibition% @ 50 uM rep1
[6] = read-out: Inhibition% @ 50 uM rep2
[7] = read-out: PbLuc IC50, dose response, 1/3 dilutions, max conc. 10 or 50 uM, unit inferred
[8] = read-out: PbLuc max inhibition (%) @ 50 uM
[9] = read-out: PbLuc IC50, dose response, unit inferred

SMILES | cytotoxicity at 50 µM [1, 3] | cytotoxicity at 50 µM [1, 4] | inhibition at 50 µM [2, 5] | inhibition at 50 µM [2, 6] | IC50 [1] | inhibition at 50 µM [1] | IC50 [2, 7] | inhibition at 50 µM [2, 8] | IC50 [2, 9]
Cc1cc(C)c2nc(N3CCC(C(=O)NCCCN4CCC(N5CCCCC5)CC4)CC3)sc2c1 [MMV019780] | 98% | 98% | 101% | 101% | – | – | – | – | –
COc1ccc(CCN2C(=O)c3[nH]nc(-c4cc(Cl)c(C)cc4O)c3C2c2ccccc2F)cc1 (stereo not drawn) [MMV396717] | 97% | – | 101% | 101% | – | – | – | – | –
CC(C)(C)CC(C)(C)NCC(O)COc1ccc(Cl)cc1Cl (stereo not drawn) [MMV396794] | 99% | 100% | 101% | 104% | 15.1 µM | 93% | 15.1 µM | 92% | –
Clc1ccc2[nH]c3c(NCCCN4CCOCC4)ncnc3c2c1 [MMV006587] | 95% | 98% | 101% | 100% | – | – | – | – | –
CCn1nc(-c2ccc(C(=O)OC)cc2)nc2c(=O)n(C)c(=O)nc1-2 [MMV306025] | 99% | 101% | 104% | 105% | – | – | – | – | –
O=C(NCc1ccco1)C1CCN(S(=O)(=O)c2ccc(Br)cc2)CC1 [MMV007430] | 28% | 34% | 103% | 105% | – | – | – | – | –
CN(C)c1ccc(C(O)(c2ccc(N(C)C)cc2)c2ccc(N(C)C)cc2)cc1 [MMV665941] | 95% | 97% | 102% | 104% | 2.31 µM | 96% | 1.69 µM | 99% | –
O=C(NCCCN1CCC(N2CCCCC2)CC1)C1=Cc2cc(Br)ccc2OC1 [MMV019995] | 100% | – | 102% | 102% | – | – | – | – | –
CCOC(=O)C1=CN(C)C=C(C(=O)OCC)C1c1cc(Br)c(OCC)c(OC)c1 [MMV006656] | 50% | – | 103% | 103% | > 50 µM | 31% | 8.23 µM | 99% | –
COc1ccc(NC(=O)C2c3ccccc3C(=O)N(CC(C)C)C2c2cccs2)cc1Cl (stereo not drawn) [MMV000642] | 50% | 30% | 104% | 106% | > 50 µM | 24% | 17 µM | 97% | –
Cc1ccc2cc3c(N)c4c(C)ccc(C)c4nc3nc2c1 [MMV666079] | 97% | – | 103% | 104% | > 50 µM | 12% | – | 74% | 31.5 µM
CC(C)(C)c1ccc(C(=O)Nc2nc3ccccc3s2)cc1 [MMV142383] | 89% | 96% | 103% | 105% | – | – | – | – | –
COc1ccc2nc(C)cc(Nc3ccccc3O)c2c1 [MMV274073] | 59% | 88% | 100% | 100% | – | – | – | – | –
CN1CCN(c2ccc(Nc3c4ccccc4nc4ccccc34)cc2)CC1 [MMV006172] | 97% | 99% | 104% | 106% | 5.18 µM | 94% | 3.44 µM | 99% | –
c1ccc(Cn2c(N=Nc3c(Nc4ccccc4)ccc4ccccc34)nc3ccccc32)cc1 [MMV666023] | 83% | 86% | 99% | 98% | 12 µM | 83% | 4.21 µM | 100% | –
c1ccc(C2=Nc3ccccc3N=C(c3ccccc3)c3ccccc32)cc1 [MMV007113] | 22% | – | 94% | 95% | > 50 µM | 15% | – | 40% | > 50 µM
O=C(Nc1ccc(CN2CCOCC2)cc1)c1ccc(-c2ccc(Br)cc2)o1 [MMV665901] | 101% | 102% | 104% | 106% | – | – | – | – | –
COc1cc2c(cc1OC)C1=NNC(=O)C1=NC(C)(C)C2 [MMV084940] | 99% | 100% | 103% | 102% | 31.3 µM | 94% | 4.02 µM | 99% | –
Cc1cc(NCCN2CCCCC2)c2ccc3ccccc3c2n1 [MMV006203] | 93% | 95% | 99% | 101% | – | – | – | – | –
CCCCNc1nc(NC(C)(C)C)nc(NC(C)(C)C)n1 [MMV665864] | 41% | – | 94% | 94% | > 50 µM | 41% | 15.5 µM | 89% | –
